Results from article PMC10707982, “Solubility and Thermodynamics Data of Cabozantinib Malate in Various Aqueous Solutions of Dimethyl Sulfoxide at Different Temperatures” (Molecules, 2023).

What was measured:
[1] = Shake flask solubility of CBZM in DMSO aqueous solutions and pure solvents; format: physicochemical; settings: for Experimental mole fraction solubility (xe): 101.1 kPa
Experimental: A digital analytical balance (Mettler Toledo, Greifensee, Switzerland) with a sensitivity of 0.10 mg was used to measure the mass of each cosolvent mixture. A series of DMSO aqueous solutions (m = 0.10–0.90), were investigated. Three replications of each cosolvent mixture were taken. CBZM’s solubility values in numerous DMSO aqueous solutions (m = 0.0–1.0) and pure solvents were determined utilizing a shake flask methodology at five distinct temperature and fixed atmospheric pressure. Essentially, extra CBZM crystals were mixed with known amounts of each cosolvent mixture and neat solvents in triplicates. All the mixtures were vortexed for about 5 min. To achieve equilibrium, the resulting mixes were transferred to a WiseBath WSB Shaking Water Bath (Model WSB-18/30/-45, Daihan Scientific Co. Ltd., Seoul, Republic of Korea) for 72 h at 100 rpm for continuous shaking. After the samples reached equilibrium, they were removed from the shaker and centrifuged at 5000 rpm for 30 min at 298.2 K. The uncertainty in water bath temperature was recorded as 0.15 K. The equilibrium time of 72 h was optimized by preliminary experiments. Under preliminary experiments, CBZM solubility was measured at 24, 48, […], 72, and 96 h. […] After the supernatants were separated and diluted with mobile phase (if needed), the CBZM content was evaluated at 244 nm using a previously described HPLC technique. By using their standard formulae found in the literature, CBZM xe values were obtained.

[2] = design: method as in doi:10.1016/j.molliq.2020.115146; settings: cited from earlier work
[3] = Apparent thermodynamic analysis of CBZM dissolution (van't Hoff and Gibbs equations) and enthalpy–entropy compensation; format: physicochemical
Experimental: All of the CBZM’s apparent thermodynamic properties were determined at Thm. The reported equation was used to determine the Thm. Then, 308 K was calculated as the Thm for CBZM. Several thermodynamic parameters were obtained via an apparent thermodynamic analysis. These parameters were computed using the van’t Hoff and Gibbs equations. Using Equation (12) and Thm = 308 K, the ΔsolH^0 data for CBZM in cosolvent mixtures and pure solvents were calculated:(12) ∂ln xe/∂1/T−1/ThmP=−ΔsolH^0/R
The ΔsolH^0 for CBZM was obtained by the plotted van’t Hoff curves between ln xe of CBZM and 1/T−1/Thm .
Furthermore, at Thm = 308 K, the ΔsolG^0 for CBZM in cosolvent combinations and pure solvents was derived utilizing the Krug et al. approach by Equation (13):(13) ΔsolG^0=−RThm×intercept where the intercept values for CBZM in cosolvent combinations and pure solvents were calculated using the van’t Hoff plots depicted in Figure 5.
By Equation (14), the ΔsolS^0 for CBZM in cosolvent mixtures and neat solvents was derived:(14) ΔsolS^0=ΔsolH^0−ΔsolG^0/Thm
An enthalpy–entropy compensation analyses was performed, as previously described, to assess the solvation behavior of CBZM in cosolvent mixtures and neat solvents. Weighted curves of ΔsolH° vs. ΔsolG° were constructed at Thm = 308 K for this experiment.

[4] = design: method as in earlier work; settings: all aqueous solutions, including H2O; cited from earlier work
[5] = DMSO mass fraction m = 0.0, Thm = 308 K
[6] = DMSO mass fraction m = 0.1, Thm = 308 K
[7] = DMSO mass fraction m = 0.2, Thm = 308 K
[8] = DMSO mass fraction m = 0.3, Thm = 308 K
[9] = DMSO mass fraction m = 0.4, Thm = 308 K
[10] = DMSO mass fraction m = 0.5, Thm = 308 K
[11] = DMSO mass fraction m = 0.6, Thm = 308 K
[12] = DMSO mass fraction m = 0.7, Thm = 308 K
[13] = DMSO mass fraction m = 0.8, Thm = 308 K
[14] = DMSO mass fraction m = 0.9, Thm = 308 K
[15] = DMSO mass fraction m = 1.0, Thm = 308 K

COc1cc2nccc(Oc3ccc(NC(=O)C4(C(=O)Nc5ccc(F)cc5)CC4)cc3)c2cc1OC [CBZM, Cabozantinib malate]
Experimental mole fraction solubility (xe) ([1]; DMSO mass fraction m = 0.0, T = 298.2 K): 2.24 × 10^−7 mole fraction | Experimental mole fraction solubility (xe) ([1]; DMSO mass fraction m = 0.0, T = 303.2 K): 3.37 × 10^−7 mole fraction | Experimental mole fraction solubility (xe) ([1]; DMSO mass fraction m = 0.0, T = 308.2 K): 4.85 × 10^−7 mole fraction | Experimental mole fraction solubility (xe) ([1]; DMSO mass fraction m = 0.0, T = 313.2 K): 6.55 × 10^−7 mole fraction | Experimental mole fraction solubility (xe) ([1]; DMSO mass fraction m = 0.0, T = 318.2 K): 8.53 × 10^−7 mole fraction | Experimental mole fraction solubility (xe) ([1]; DMSO mass fraction m = 0.1, T = 298.2 K): 7.46 × 10^−7 mole fraction | Experimental mole fraction solubility (xe) ([1]; DMSO mass fraction m = 0.1, T = 303.2 K): 1.12 × 10^−6 mole fraction | Experimental mole fraction solubility (xe) ([1]; DMSO mass fraction m = 0.1, T = 308.2 K): 1.52 × 10^−6 mole fraction | Experimental mole fraction solubility (xe) ([1]; DMSO mass fraction m = 0.1, T = 313.2 K): 2.01 × 10^−6 mole fraction | Experimental mole fraction solubility (xe) ([1]; DMSO mass fraction m = 0.1, T = 318.2 K): 2.55 × 10^−6 mole fraction | Experimental mole fraction solubility (xe) ([1]; DMSO mass fraction m = 0.2, T = 298.2 K): 2.48 × 10^−6 mole fraction | Experimental mole fraction solubility (xe) ([1]; DMSO mass fraction m = 0.2, T = 303.2 K): 3.48 × 10^−6 mole fraction | Experimental mole fraction solubility (xe) ([1]; DMSO mass fraction m = 0.2, T = 308.2 K): 4.69 × 10^−6 mole fraction | Experimental mole fraction solubility (xe) ([1]; DMSO mass fraction m = 0.2, T = 313.2 K): 6.00 × 10^−6 mole fraction | Experimental mole fraction solubility (xe) ([1]; DMSO mass fraction m = 0.2, T = 318.2 K): 7.57 × 10^−6 mole fraction | Experimental mole fraction solubility (xe) ([1]; DMSO mass fraction m = 0.3, T = 298.2 K): 8.00 × 10^−6 mole fraction | Experimental mole fraction solubility (xe) ([1]; DMSO mass fraction m = 0.3, T = 303.2 K): 1.11 × 10^−5 mole fraction | Experimental mole fraction solubility (xe) ([1]; DMSO mass fraction m = 0.3, T = 308.2 K): 1.46 × 10^−5 mole fraction | Experimental mole fraction solubility (xe) ([1]; DMSO mass fraction m = 0.3, T = 313.2 K): 1.83 × 10^−5 mole fraction | Experimental mole fraction solubility (xe) ([1]; DMSO mass fraction m = 0.3, T = 318.2 K): 2.25 × 10^−5 mole fraction | Experimental mole fraction solubility (xe) ([1]; DMSO mass fraction m = 0.4, T = 298.2 K): 2.66 × 10^−5 mole fraction | Experimental mole fraction solubility (xe) ([1]; DMSO mass fraction m = 0.4, T = 303.2 K): 3.48 × 10^−5 mole fraction | Experimental mole fraction solubility (xe) ([1]; DMSO mass fraction m = 0.4, T = 308.2 K): 4.42 × 10^−5 mole fraction | Experimental mole fraction solubility (xe) ([1]; DMSO mass fraction m = 0.4, T = 313.2 K): 5.49 × 10^−5 mole fraction | Experimental mole fraction solubility (xe) ([1]; DMSO mass fraction m = 0.4, T = 318.2 K): 6.59 × 10^−5 mole fraction | Experimental mole fraction solubility (xe) ([1]; DMSO mass fraction m = 0.5, T = 298.2 K): 8.61 × 10^−5 mole fraction | Experimental mole fraction solubility (xe) ([1]; DMSO mass fraction m = 0.5, T = 303.2 K): 1.12 × 10^−4 mole fraction | Experimental mole fraction solubility (xe) ([1]; DMSO mass fraction m = 0.5, T = 308.2 K): 1.38 × 10^−4 mole fraction | Experimental mole fraction solubility (xe) ([1]; DMSO mass fraction m = 0.5, T = 313.2 K): 1.69 × 10^−4 mole fraction | Experimental mole fraction solubility (xe) ([1]; DMSO mass fraction m = 0.5, T = 318.2 K): 1.98 × 10^−4 mole fraction | Experimental mole fraction solubility (xe) ([1]; DMSO mass fraction m = 0.6, T = 303.2 K): 3.47 × 10^−4 mole fraction | Experimental mole fraction solubility (xe) ([1]; DMSO mass fraction m = 0.6, T = 308.2 K): 4.21 × 10^−4 mole fraction | Experimental mole fraction solubility (xe) ([1]; DMSO mass fraction m = 0.6, T = 313.2 K): 4.95 × 10^−4 mole fraction | Experimental mole fraction solubility (xe) ([1]; DMSO mass fraction m = 0.6, T = 318.2 K): 5.79 × 10^−4 mole fraction | Experimental mole fraction solubility (xe) ([1]; DMSO mass fraction m = 0.7, T = 298.2 K): 9.33 × 10^−4 mole fraction | Experimental mole fraction solubility (xe) ([1]; DMSO mass fraction m = 0.7, T = 303.2 K): 1.12 × 10^−3 mole fraction | Experimental mole fraction solubility (xe) ([1]; DMSO mass fraction m = 0.7, T = 308.2 K): 1.31 × 10^−3 mole fraction | Experimental mole fraction solubility (xe) ([1]; DMSO mass fraction m = 0.7, T = 313.2 K): 1.53 × 10^−3 mole fraction | Experimental mole fraction solubility (xe) ([1]; DMSO mass fraction m = 0.7, T = 318.2 K): 1.72 × 10^−3 mole fraction | Experimental mole fraction solubility (xe) ([1]; DMSO mass fraction m = 0.8, T = 298.2 K): 3.09 × 10^−3 mole fraction | Experimental mole fraction solubility (xe) ([1]; DMSO mass fraction m = 0.8, T = 303.2 K): 3.53 × 10^−3 mole fraction | Experimental mole fraction solubility (xe) ([1]; DMSO mass fraction m = 0.8, T = 308.2 K): 3.99 × 10^−3 mole fraction | Experimental mole fraction solubility (xe) ([1]; DMSO mass fraction m = 0.8, T = 313.2 K): 4.55 × 10^−3 mole fraction | Experimental mole fraction solubility (xe) ([1]; DMSO mass fraction m = 0.8, T = 318.2 K): 5.04 × 10^−3 mole fraction | Experimental mole fraction solubility (xe) ([1]; DMSO mass fraction m = 0.9, T = 298.2 K): 1.07 × 10^−2 mole fraction | Experimental mole fraction solubility (xe) ([1]; DMSO mass fraction m = 0.9, T = 303.2 K): 1.15 × 10^−2 mole fraction | Experimental mole fraction solubility (xe) ([1]; DMSO mass fraction m = 0.9, T = 308.2 K): 1.26 × 10^−2 mole fraction | Experimental mole fraction solubility (xe) ([1]; DMSO mass fraction m = 0.9, T = 313.2 K): 1.38 × 10^−2 mole fraction | Experimental mole fraction solubility (xe) ([1]; DMSO mass fraction m = 0.9, T = 318.2 K): 1.52 × 10^−2 mole fraction | Experimental mole fraction solubility (xe) ([1]; DMSO mass fraction m = 1.0, T = 298.2 K): 3.29 × 10^−2 mole fraction | Experimental mole fraction solubility (xe) ([1]; DMSO mass fraction m = 1.0, T = 303.2 K): 3.50 × 10^−2 mole fraction | Experimental mole fraction solubility (xe) ([1]; DMSO mass fraction m = 1.0, T = 308.2 K): 3.78 × 10^−2 mole fraction | Experimental mole fraction solubility (xe) ([1]; DMSO mass fraction m = 1.0, T = 313.2 K): 4.02 × 10^−2 mole fraction | Experimental mole fraction solubility (xe) ([1]; DMSO mass fraction m = 1.0, T = 318.2 K): 4.38 × 10^−2 mole fraction | Solubility classification in DMSO ([1]; neat DMSO, 298.2–318.2 K): freely soluble | Solubility classification in H2O ([1]; neat H2O, 298.2–318.2 K): practically insoluble | Total HSP (δt) [2]: 25.50 MPa^1/2 | Apparent standard Gibbs energy ΔsolG^0 [3, 5]: 8.929 kcal/mol | Apparent standard enthalpy ΔsolH^0 [3, 5]: 12.6 kcal/mol | Apparent standard entropy ΔsolS^0 [3, 5]: 49.82 J mol^−1 K^−1 | Apparent standard Gibbs energy ΔsolG^0 [3, 6]: 8.224 kcal/mol | Apparent standard enthalpy ΔsolH^0 [3, 6]: 11.48 kcal/mol | Apparent standard entropy ΔsolS^0 [3, 6]: 44.21 J mol^−1 K^−1 | Apparent standard Gibbs energy ΔsolG^0 [3, 7]: 7.533 kcal/mol | Apparent standard enthalpy ΔsolH^0 [3, 7]: 10.47 kcal/mol | Apparent standard entropy ΔsolS^0 [3, 7]: 39.92 J mol^−1 K^−1 | Apparent standard Gibbs energy ΔsolG^0 [3, 8]: 6.84 kcal/mol | Apparent standard enthalpy ΔsolH^0 [3, 8]: 9.696 kcal/mol | Apparent standard entropy ΔsolS^0 [3, 8]: 38.80 J mol^−1 K^−1 | Apparent standard Gibbs energy ΔsolG^0 [3, 9]: 6.152 kcal/mol | Apparent standard enthalpy ΔsolH^0 [3, 9]: 8.559 kcal/mol | Apparent standard entropy ΔsolS^0 [3, 9]: 32.71 J mol^−1 K^−1 | Apparent standard Gibbs energy ΔsolG^0 [3, 10]: 5.452 kcal/mol | Apparent standard enthalpy ΔsolH^0 [3, 10]: 7.835 kcal/mol | Apparent standard entropy ΔsolS^0 [3, 10]: 32.35 J mol^−1 K^−1 | Apparent standard Gibbs energy ΔsolG^0 [3, 11]: 4.768 kcal/mol | Apparent standard enthalpy ΔsolH^0 [3, 11]: 6.697 kcal/mol | Apparent standard entropy ΔsolS^0 [3, 11]: 26.18 J mol^−1 K^−1 | Apparent standard Gibbs energy ΔsolG^0 [3, 12]: 4.07 kcal/mol | Apparent standard enthalpy ΔsolH^0 [3, 12]: 5.779 kcal/mol | Apparent standard entropy ΔsolS^0 [3, 12]: 23.21 J mol^−1 K^−1 | Apparent standard Gibbs energy ΔsolG^0 [3, 13]: 3.382 kcal/mol | Apparent standard enthalpy ΔsolH^0 [3, 13]: 4.656 kcal/mol | Apparent standard entropy ΔsolS^0 [3, 13]: 17.30 J mol^−1 K^−1 | Apparent standard Gibbs energy ΔsolG^0 [3, 14]: 2.674 kcal/mol | Apparent standard entropy ΔsolS^0 [3, 14]: 9.05 J mol^−1 K^−1 | Apparent standard Gibbs energy ΔsolG^0 [3, 15]: 2 kcal/mol | Apparent standard enthalpy ΔsolH^0 [3, 15]: 2.732 kcal/mol | Apparent standard entropy ΔsolS^0 [3, 15]: 9.91 J mol^−1 K^−1 | Solvation-driven process (enthalpy–entropy compensation) ([3]; all cosolvent combinations and pure solvents, Thm = 308 K): enthalpy-driven | Nature of dissolution ([3]; all cosolvent combinations, including neat solvents): endothermic and entropy-driven | Solubility in aqueous solutions [4]: nearly insoluble
